The values below are quoted from earlier work in patent US5441941A, “1,2-dihydroellipticines with activity against CNS specific cancer” (The United States of America as represented by the …, priority 1993, dated 1995).

Where two headings read alike, the source gives them in different places.

For series [1], the system named is mouse lymphoid leukemia L-1210. The settings on record: cited from earlier work.
In another series the test system is Sarcoma 180 (solid). The settings on record: in vivo; cited from earlier work.
For a further series, the system named is SF126. The settings on record: human glioma line; cited from earlier work.
The test system of another series is SF375. The settings on record: human glioma line; cited from earlier work.
In the next series the test system is SF407. The settings on record: human glioma line; cited from earlier work.
Another series relates to P388. The settings on record: cited from earlier work.
The test system of the next series is B16 melanoma. The settings on record: cited from earlier work.
Another series deals with colon carcinoma. The settings on record: cited from earlier work.
In a further series the test system is M5076 reticulosarcoma. The settings on record: cited from earlier work.
Another series has as its system mammary cancer. The settings on record: in vivo; cited from earlier work.

As for `Cc1c2ccncc2c(C)c2c1[nH]c1ccccc12` [ellipticine, 5, 11-dimethyl-6H-pyrido [4,3-b] carbazole], in series [1] (mouse L-1210 leukemia), the antitumor activity result was “effective against the tumor of animals”. For the same molecule, the “effect against tumor of animals” value with Sarcoma 180 (solid) is “effective against the tumor of animals”.

For `Cc1c2cc[n+](C)cc2c(C)c2c1[nH]c1ccc(O)cc12` [elliptinium], the in vitro activity result with SF126, in the series on SF375 and with SF407 was “in vitro activity” each time.

`CCN(CC)CC[n+]1ccc2c(C)c3[nH]c4ccc(O)cc4c3c(C)c2c1` [datelliptium, 2-[(2-diethylamino)ethyl]-9-hydroxyellipticinium]: the antitumor activity result in series [1] (mouse, in vivo) is “in vivo activity”. The in vivo activity result with P388, with B16 melanoma, in the series on colon carcinoma and in the series with M5076 reticulosarcoma was “in vivo activity” in each case.

As to `Cc1c2ccncc2c(C)c2c1[nH]c1ccc(O)cc12` [9-hydroxyellipticine, 9-hydroxy-5,11-dimethyl-(6H) -pyrido [4,3-b] carbazole], the antitumor activity result in [1] (mouse L-1210 leukemia) is listed as “considerably high antitumor properties”.

On to `Cc1c2cc[n+](C)cc2c(C)c2c1[nH]c1ccc(O)cc12` [Celiptium, 2-methyl-9-hydroxyellipticinium acetate], for which the “effect against mammary cancer” value with mammary cancer was “effective against mammary cancer”.
